Laboratory results published in PubChem BioAssay (NCI).
Several values for one entry are separate records, joined by “and”; a condition that tells them apart may be missing. Equal values may be shown once.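 Five concentrations, 48 hours, 96-well plates. GI50 is the concentration that inhibits growth by half. The concentration for full growth arrest is given as TGI.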

How the values were obtained:
Test in all cases: DTP human tumour cell line panel, 48 h
BT-549 breast = test system: BT-549 breast
MCF7 breast = test system: MCF7 breast
MDA-N = test system: MDA-N
HOP-18 NSCLC = test system: HOP-18 NSCLC
SNB-78 CNS = test system: SNB-78 CNS
DMS 273 small cell lung = test system: DMS 273 small cell lung
DMS 114 small cell lung = test system: DMS 114 small cell lung

| SMILES | GI50 (BT-549 breast) [µM] | TGI (BT-549 breast) | GI50 (MCF7 breast) [µM] | TGI (MCF7 breast) [µM] | TGI (MDA-N) | TGI (HOP-18 NSCLC) [µM] | TGI (SNB-78 CNS) [µM] | GI50 (MDA-N) [µM] | TGI (DMS 273 small cell lung) [µM] | TGI (DMS 114 small cell lung) [µM] |
| --- | --- | --- | --- | --- | --- | --- | --- | --- | --- | --- |
| Cc1ccc2nc(-c3ccc(N(C)C)c(Br)c3)cn2c1 | 63.3 | > 100 µM | 27.8 | > 100 |  |  |  |  |  |  |
| CCOc1cccc(/C=N/NC(=O)C(=O)Nc2cccc(C(F)(F)F)c2)c1O | 5.36 | > 100 µM | 2.14 | > 100 |  |  |  |  |  |  |
| O=C1NC(=S)S/C1=C(/C=C(\CC(=O)c1ccccc1)c1ccc(Cl)cc1)c1ccccc1 | 33 | > 100 µM | 19.8 | 48.1 |  |  |  |  |  |  |
| Cc1sc2nc3c4ccccc4c(NCCCN(C)C)nn3c(=O)c2c1C | 11.7 | 26.9 µM | 1.43 | 5.63 |  |  |  |  |  |  |
| COc1cc(/C=C2\C(=O)Nc3ccc(N(C)C)cc32)cc(OC)c1OC | 2.49 | 14.5 µM | 1.51 | > 100 |  |  |  |  |  |  |
| CCN(CC)C(=S)SC |  | > 100 µM |  | > 100 | > 100 µM |  |  |  |  |  |
| CC(CCC(=O)O)C(=O)O (stereo not given) |  | > 100 µM |  | > 100 | > 100 µM |  |  |  |  |  |
| CN(C)CCCNC(=O)c1ccc2c(c1)oc1cc3ccccc3c(=O)n12 | 12.7 | 26.5 µM | 15 | 39.2 |  |  |  |  |  |  |
| Cn1c2c(c3ccc(Cl)c(Cl)c31)C(C#N)C1(CCNCC1)NC2=O (stereo not given) | 3.04 | 16.7 µM | 1.45 | 3.01 |  |  |  |  |  |  |
| Cc1nc2sccn2c1-c1csc(Nc2cccc(Cl)c2C)n1 | 3.44 | 20.5 µM | 3.34 | 25.6 |  |  |  |  |  |  |
| C/C(=N\N(c1ccccc1)c1ccccc1)c1c(O)cc(C)oc1=O |  |  |  |  |  | > 100 | > 100 |  |  |  |
| COc1ccc(Cn2c3c(cc(OS(=O)(=O)C(F)(F)F)c2=O)Cc2ccccc2-3)cc1 | 19.9 | 50 µM and > 100 µM |  |  | 50 µM and > 100 µM |  |  | 7.55 |  |  |
| Cc1cc(S(=O)(=O)NC#N)c(S/C(=N\Nc2ccc([N+](=O)[O-])cc2)c2ccc(Cl)cc2)cc1Cl | 20.3 | 73.4 µM | 15.9 | 42.6 |  |  |  |  |  |  |
| CCOC(=O)/C=C1\CCCC12OCCO2 |  |  |  |  |  | > 100 | > 100 |  | > 100 | > 100 |
| Cc1c(C(=O)NCCN2CCOCC2)cn2ncnc(Oc3ccc(NC(=O)Nc4ccc(Cl)c(C(F)(F)F)c4)cc3)c12 | 1.66 | 3.21 µM |  |  |  |  |  |  |  |  |
| Cc1cc(Cl)ccc1Nc1nc(C(F)(F)F)ccc1C(=O)N/N=C/c1ccc([N+](=O)[O-])cc1 | 1.5 | 4.96 µM | 1.58 | 6.93 |  |  |  |  |  |  |
| C=C1C(=O)O[C@H]2[C@H]1CC/C(COC(=O)c1cc3cc(Cl)ccc3[nH]1)=C\CC[C@@]1(C)O[C@@H]21 | 1.31 | 3.2 µM | 0.86 | 2.32 |  |  |  |  |  |  |
| Cc1cc2c(cc1C)N(C(=O)CCl)CCN2C(=O)CCl | 1.31 | 2.7 µM | 0.451 | 2.02 |  |  |  |  |  |  |
| COC(=O)c1nc(Cl)nc(Cl)c1Cl |  |  |  | 55.1 | 76.8 µM |  |  |  |  |  |
| CN(C)CC1CCC/C1=N\O (stereo not given) |  |  |  |  |  | > 100 | > 100 |  | > 100 |  |
| COc1ccccc1/C=C/C(=O)c1ccccc1 | 10.2 | 23.9 µM | 1.56 | 10.2 |  |  |  |  |  |  |
| Cc1[nH]nc(C(=O)n2nc(N)c3ccccc32)c1[N+](=O)[O-] | > 90.8 | > 100 µM | > 100 | > 100 |  |  |  |  |  |  |
| COc1ccc2[nH]c(O)c(C(=Nc3ccc(N(C)C(=O)CN4CCN(C)CC4)cc3)c3ccccc3)c2c1 | 1.55 | 3.19 µM | 0.725 | 3.62 |  |  |  |  |  |  |
| COc1ccc2c(c1)/C(=C\c1c(Cl)[nH]c3ccc(OC)cc13)C(=O)N2 | 28.8 | > 100 µM | 44.9 | > 100 |  |  |  |  |  |  |
| CCOc1cc(/C=N\Nc2nnc(C)n2N)c(C)cc1N(CCCl)CCCl | 1.33 | 20.6 µM | 0.391 | > 25.7 |  |  |  |  |  |  |
| Nc1ccccc1C#C/C=C\C#Cc1ccccc1[N+](=O)[O-] | 4.66 | 22.6 µM | 3.32 | > 100 |  |  |  |  |  |  |
| NC(N)=NCCC1OC(=O)C2=C1c1c(O)ccc3nccc(c13)O2 (stereo not given) |  |  | > 100 | > 100 | > 100 µM |  |  | > 100 |  |  |
| Cc1cccc(C)c1NC(=O)C1C(=O)N(c2c(C)cccc2C)C(=O)/C1=N\NC(N)=S (stereo not given) |  |  |  |  |  | > 100 | > 100 |  |  | > 100 |
| COc1ccc(-c2oc3c(OC)c(OC)c(OC)c(OC)c3c(=O)c2OC)cc1OC |  | > 100 µM |  | > 100 | > 100 µM |  |  |  |  |  |
